Assay results: US9321764B2, “Dihydro-pyrrolopyridinone inhibitors” (AbbVie Inc., priority 2013, dated 2016)
Marks after values point to notes of the source that are not given here.

Columns and labels:
[1] = test system: breast cancer cell line MX-1; test: MX-1 cell line proliferation assay; type: cell-based; conditions: Homo sapiens, MX1, 72 h, MX-1 cells, 3-day proliferation assay, Cell Titer Glo; read-out: Cellular proliferation EC50
Method in brief: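 Final compound concentrations spanned 0.0001 to 3 μM, added to 5000 cells/well plated the previous night in RPMI 1640 plus 10% FBS at 37 °C.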

[2] = test system: LPS induced IL-6 production; test: LPS (lipopolysaccharide) induced IL-6 production mouse assay; type: in vivo; conditions: read-out: Inhibition of LPS induced IL-6 production, % inhibition at 3 mg/kg, 3 mg/kg oral, one hour before LPS 2.5 mg/kg i.p., serum IL-6 2 hours after LPS, SCID female mice, all p < 0.05
Procedure: Compounds of the Examples listed in Table 2 were assayed for their ability to inhibit LPS (lipopolysaccharide) induced IL-6 (Interleukin-6) production in mice. Fox Chase SCID® female mice (Charles Rivers Labs, 5 per group) received an intraperitoneal challenge of lipopolysaccharide (2.5 mg/kg, L2630 E. coli 0111:B4) one hour after oral administration of compounds. Mice were euthanized 2 hours after lipopolysaccharide injection, blood was removed by cardiac puncture, and then the serum harvested from the blood samples was frozen at −80° C. On the day of the assay the serum samples were brought to room temperature and then diluted 1:20 in phosphate-buffered saline containing 2% bovine serum albumin. Interleukin-6 measurements were performed using a cytokine assay from Meso Scale Discovery (Gaithersburg, Md.) for mouse serum analysis according to the manufacturer's protocol and read on a SECTOR Imager 6000 (Meso Scale Discovery, Gaithersburg, Md.) instrument. Statistical analysis was performed using Prism software (version 5.0) incorporating Dunnett's one way ANOVA. The IL-6 mean and standard deviation of the group of vehicle treated animals were compared with the IL-6 mean and standard deviation of the group treated with drug. A p value <0.05 means that there is less than a 5% probability that the mean values in the two groups are equal.

OPM-2 xenograft tumors = test: Xenograft tumor growth inhibition assay (OPM-2); type: in vivo, mice; conditions: QDx21; for % TGI: OPM-2 xenograft, SCID-beige mice; for % removed from study: removed due to morbidity or weight loss in excess of 20%
Procedure: The effect of compounds of the examples to inhibit the growth of OPM-2 xenograft tumors implanted in mice was evaluated. A suspension of cancer cells (5×10^6 per 0.1 mL) prepared in RPMI culture medium (Invitrogen, Carlsbad, Calif.) was diluted 1:1 with a solution of Matrigel™ (BD Biosciences, Franklin Lakes, N.J.) and inoculated subcutaneously into the right hind flank of female SCID-beige (Charles River Labs) mice. Randomization into treatment and vehicle control groups (10/group) occurred when the mean tumor volume reached approximately 250 mm^3 Compounds were formulated in 10% EtOH, 30% PEG 400, 60% Phosol 53 MCT. Administration of compound or vehicle was initiated on the day following randomization and continued for 21 days.

BRD4 (BDI_K57-E168) = biological target: T1, BRD4 (BDI_K57-E168) (Homo sapiens, UniProt O60885); test: TR-FRET bromodomain binding assay, first bromodomain of BRD4; conditions: His-tagged BD1, 100 nM Alexa647 probe; TR-FRET protocol A-E given per row
T1 construct: BD1: amino acids K57-E168; made in house
Method in brief: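 Ki values come from IC50s (4-parameter logistic) corrected for probe Kd and concentration, normalised to no-compound and 1 μM unlabelled probe controls. Probe displacement by TR-FRET used 8 nM BD1 (K57-E168), 100 nM Alexa647 probe, 1 nM Eu-anti-His, 20 mM phosphate pH 6.0, 2% DMSO, 1 h, room temperature.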

BRD4 (BDII_E352-M457) = biological target: T2, BRD4 (BDII_E352-M457) (Homo sapiens, UniProt O60885); test: TR-FRET bromodomain binding assay, second bromodomain of BRD4; conditions: His-tagged BD2, 30 nM Alexa647 probe; TR-FRET protocol A-E given per row
T2 construct: proliferation; Protocol; made in house
Method in brief: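 His-tagged BRD4 BD2 ([…]) competed against an Alexa647-labelled BET-inhibitor probe in TR-FRET. Buffer was 20 mM sodium phosphate pH 6.0, 50 mM NaCl, 1 mM EDTA, 0.01% Triton X-100, 1 mM DTT, with method D DMSO series of 2.5 mM–800 nM (stock range). IC50 from 4-parameter fit, Ki from probe Kd and concentration.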

| EC50 [1] [µM] | Ki (BRD4 (BDI_K57-E168)) [µM] | Ki (BRD4 (BDII_E352-M457)) [µM] | Compound | inhibition in vivo at 3 mg/kg [2] [%] | % TGI (OPM-2 xenograft tumors; 10 mg/kg PO) | % removed from study (OPM-2 xenograft tumors; 10 mg/kg PO) [%] | % TGI (OPM-2 xenograft tumors; 30 mg/kg PO) | % removed from study (OPM-2 xenograft tumors; 30 mg/kg PO) [%] | % TGI (OPM-2 xenograft tumors; 1 mg/kg PO) [%] | % removed from study (OPM-2 xenograft tumors; 1 mg/kg PO) [%] | % TGI (OPM-2 xenograft tumors; 3 mg/kg PO) [%] | % removed from study (OPM-2 xenograft tumors; 3 mg/kg PO) [%] |
| --- | --- | --- | --- | --- | --- | --- | --- | --- | --- | --- | --- | --- |
| 0.107 | 0.034 | 0.038 | Cn1cc(-c2cc(S(C)(=O)=O)ccc2Oc2ccc(F)cc2F)c2cc[nH]c(=O)c21 [Example 17, 3-[2-(2,4-difluorophenoxy)-5-(methylsulfonyl)phenyl]-1-methyl-1,6-dihydro-7H-pyrrolo[2,3-c]pyridin-7-one] | 49 | 60*** % | 10 | 64*** % | 10 |  |  |  |  |
|  | 0.0046 | 0.0071 | Cn1cc(-c2cc(CS(C)(=O)=O)ccc2Oc2ccc(F)cc2F)c2cc[nH]c(=O)c21 [Example 52, 3-{2-(2,4-difluorophenoxy)-5-[(methylsulfonyl)methyl]phenyl}-1-methyl-1,6-dihydro-7H-pyrrolo[2,3-c]pyridin-7-one] | 77 |  |  |  |  | 13 | 0 | 16 | 10 |
